Data from patent US7405235B2, “Transcription factor modulating compounds and methods of use thereof” (Paratek Pharmaceuticals, Inc., priority 2001, dated 2008).

biological target: MarA (Escherichia coli, UniProt P0ACH5); assay: MarA-activated selective marker (ccdB) cell survival assay, Example 2; format: cell-based; design: key: * indicates good inhibition of MarA; ** indicates very good inhibition of MarA; conditions: inhibition of MarA: cell survival under conditions of MarA expression (ccdB under MarA-activated promoter)
Sequence (P0ACH5 whole entry, looked up): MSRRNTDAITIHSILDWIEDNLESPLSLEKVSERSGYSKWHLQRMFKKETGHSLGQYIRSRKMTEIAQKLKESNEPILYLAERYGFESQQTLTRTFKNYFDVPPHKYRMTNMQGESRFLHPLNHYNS
Source text: In the absence of Mar A, the expression of the selective marker would be silent. For example, in the case of regulation of the cytotoxic gene ccdB, the gene would be silent and the cells would survive. Synthesis of MarA from an inducible plasmid in a suitable host would result in the activation of the MarA responsive activatable promoter and expression of the selective marker. In the case of ccdB, the gene would be expressed and result in cell death. Compounds that inhibit MarA would be identified as those that permit cell survival under conditions of MarA expression.
In the absence of MarA, the expression of the selective marker is silent and cells survive. Synthesis of MarA from an inducible plasmid in a bacterial or yeast cell leads to the activation of the inaA promoter, expression of ccdB, and subsequently results in cell death. Compounds that inhibit MarA are those that permit cell survival under conditions of MarA expression. In Table 4, * indicates good inhibition of MarA and ** indicates very good inhibition of MarA.

SMILES	MarA inhibition class
CSc1nnc2c(n1)OC(c1ccc(I)o1)Nc1ccccc1-2 (centres unmarked) [A, 6-(5-Iodo-furan-2-yl)-3-methylsulfanyl-6,7-dihydro-5-oxa-1,2,4,7-tetraaza-dibenzo[a,c]cycloheptene]	**
N#Cc1c(-c2ccc3c(c2)OCO3)c(C#N)c2nc3ccccc3n2c1N [AB, 1-Amino-3-benzo[1,3]dioxol-5-yl-benzo[4,5]imidazo[1,2-a]pyridine-2,4-dicarbonitrile]	**
COC(=O)c1ccccc1NC(=O)CSc1nnc(-c2ccco2)n1-c1ccccc1 [AC, 2-[2-(5-Furan-2-yl-4-phenyl-4H-[1,2,4]triazol-3-ylsulfanyl)-acetylamino]-benzoic acid methyl ester]	*
Cc1cc2nc3s/c(=C/c4c[nH]nc4-c4ccccc4)c(=O)n3c2cc1C [AD, 6,7-Dimethyl-2-(3-phenyl-1H-pyrazol-4-ylmethylene)-benzo[4,5]imidazo[2,1-b]thiazol-3-one]	*
CSc1cccc(NC(=O)CSc2nnc(-c3ccc4nonc4c3)n2C)c1 [AE, 2-(5-Benzo[1,2,5]oxadiazol-5-yl-4-methyl-4H-[1,2,4]triazol-3-ylsulfanyl)-N-(3-methylsulfanyl-phenyl)-acetamide]	*
O=C1C(=C2NC(c3ccccn3)C3C(=O)N(c4ccccc4)C(=O)C23)C(=O)c2ccccc21 (centres unmarked) [AF, 4-(1,3-Dioxo-indan-2-ylidene)-2-phenyl-6-pyridin-2-yl-tetrahydro-pyrrolo[3,4-c]pyrrole-1,3-dione]	**
O=[N+]([O-])c1ccc2nc(-c3ccccc3)n(OCc3cccc(C(F)(F)F)c3)c2c1 [AG, 6-Nitro-2-phenyl-1-(3-trifluoromethyl-benzyloxy)-1H-benzoimidazole]	**
O=C(O)COn1c(-c2ccccc2)nc2ccc([N+](=O)[O-])cc21 [AH, (6-Nitro-2-phenyl-benzoimidazol-1-yloxy)-acetic acid]	**
O=[N+]([O-])c1ccc2nc(-c3ccccc3)n(OCc3ccccc3)c2c1 [AI, 1-Benzyloxy-6-nitro-2-phenyl-1H-benzoimidazole]	**
Cc1ccc(COn2c(-c3ccccc3)nc3ccc([N+](=O)[O-])cc32)cc1 [AJ, 1-(4-Methyl-benzyloxy)-6-nitro-2-phenyl-1H-benzoimidazole]	*
Cn1c(=O)c2c3oc(-c4ccc([N+](=O)[O-])cc4)nc3c(=O)n(-c3ccccc3)c2n(C)c1=O [AK, 6,8-Dimethyl-2-(4-nitro-phenyl)-5-phenyl-5H,6H-1-oxa-3,5,6,8-tetraaza-cyclopenta[a]naphthalene-4,7,9-trione]	**
Cc1ccc(-c2nc3c(=O)n(-c4ccccc4)c4c(c(=O)n(C)c(=O)n4C)c3o2)cc1 [AL, 6,8-Dimethyl-5-phenyl-2-p-tolyl-5H,6H-1-oxa-3,5,6,8-tetraaza-cyclopenta[a]naphthalene-4,7,9-trione]	*
CN(C)c1ccc(-c2cc(=O)c3ccccc3o2)cc1 [AW, 2-[4-(dimethylamino)phenyl]-4H-chromen-4-one]	**
c1ccc(COn2c(-c3ccccc3)nc3ncccc32)cc1 [AX, 1-(benzyloxy)-2-phenyl-1H-imidazo[4,5-b]pyridine]	**
c1ccc(CSc2ncc(-c3nnnn3-c3ccccc3)c(-c3ccccc3)n2)cc1 [AY, 2-(benzylthio)-4-phenyl-5-(1-phenyl-1H-1,2,3,4-tetrazol-5-yl)pyrimidine]	**
O=c1cc(-c2ccccc2)oc2ccc(F)cc12 [AZ, 6-fluoro-2-phenyl-4H-chromen-4-one]	**
CCOc1ccc(C2Nc3ccccc3-c3nnc(SC)nc3O2)cc1 (centres unmarked) [B, 6-(4-Ethoxy-phenyl)-3-methylsulfanyl-6,7-dihydro-5-oxa-1,2,4,7-tetraaza-dibenzo[a,c]cycloheptene]	*
COc1ccc2c(=O)cc(-c3ccccc3)oc2c1 [BA, 7-methoxy-2-phenyl-4H-chromen-4-one]	*
O=C1C(=C2NC(c3ccccn3)C3C(=O)N(c4ccccc4)C(=O)C23)C(=O)c2ccccc21 (centres unmarked) [BB, 4-(1,3-dioxo-1,3-dihydro-2H-inden-2-yliden)-2-phenyl-6-(2-pyridinyl)tetrahydro pyrrolo[3,4-c]pyrrole-1,3(2H,3aH)-dione]	*

SMILES	MarA inhibition class
CCOC(=O)C(C(N)=O)C1(O)OC(c2ccc(C)cc2)=CC1=O (centres unmarked) [BC, 2-(2-Hydroxy-3-oxo-5-p-tolyl-2,3-dihydro-furan-2-yl)-malonamic acid ethylester]	*
O=C(O)COn1c(-c2ccccc2)nc2ccc([N+](=O)[O-])cc21 [BD, 2-[(6-nitro-2-phenyl-1H-1,3-benzimidazol-1-yl)oxy]acetic acid]	*
O=c1cc(-c2ccc(F)cc2)oc2ccccc12 [BE, 2-(4-fluorophenyl)-4H-chromen-4-one]	*
COn1c(-c2ccc(C)cc2)nc2ncccc21 [BF, 1-methoxy-2-(4-methylphenyl)-1H-imidazo[4,5-b]pyridine]	*
O=c1cc(-c2ccc(O)cc2)oc2ccccc12 [BG, 2-(4-hydroxyphenyl)-4H-chromen-4-one]	*
CSc1nnc2c(n1)OC(c1ccc([N+](=O)[O-])o1)Nc1ccccc1-2 (centres unmarked) [C, 3-Methylsulfanyl-6-(5-nitro-furan-2-yl)-6,7-dihydro-5-oxa-1,2,4,7-tetraaza-dibenzo[a,c]cycloheptene]	*
CSc1nnc2c(n1)OC(c1ccc(-c3ccc([N+](=O)[O-])cc3)o1)Nc1ccccc1-2 (centres unmarked) [D, 3-Methylsulfanyl-6-[5-(4-nitro-phenyl)-furan-2-yl]-6,7-dihydro-5-oxa-1,2,4,7-tetraaza-dibenzo[a,c]cycloheptene]	*
CCSc1nnc2c(n1)OC(c1ccc(O)c(O)c1)Nc1ccccc1-2 (centres unmarked) [E, 4-(3-Ethylsulfanyl-6,7-dihydro-5-oxa-1,2,4,7-tetraza-dibenzo[a,c]cyclohepten-6-yl)-benzene-1,2-diol]	*
CCCSc1nnc2c(n1)OC(c1ccc(OCc3ccccc3)cc1)Nc1ccccc1-2 (centres unmarked) [F, 6-(4-Benzyloxy-phenyl)-3-propylsulfanyl-6,7-dihydro-5-oxa-1,2,4,7-tetraaza-dibenzo[a,c]cycloheptene]	**
CCCCSc1nnc2c(n1)OC(c1ccc(OC)cc1OC)Nc1ccccc1-2 (centres unmarked) [H, 3-Butylsulfanyl-6-(2,4-dimeethoxy-phenyl)-6,7-dihydro-5-oxa-1,2,4,7-tetraaza-dibenzo[a,c]cycloheptene]	*
C=CCOc1ccc(C2Nc3ccccc3-c3nnc(SCCCC)nc3O2)cc1 (centres unmarked) [I, 6-(4-Allyloxy-phenyl)-3-butylsulfanyl-6,7-dihydro-5-oxa-1,2,4,7-tetraaza-dibenzo[a,c]cycloheptene]	**
CCCCSc1nnc2c(n1)OC(c1ccc(OCC)cc1)Nc1ccccc1-2 (centres unmarked) [J, 3-Butylsulfanyl-6-(4-ethoxy-phenyl)-6,7-dihydro-5-oxa-1,2,4,7-tetraaza-dibenzo[a,c]cycloheptene]	*
CCCSc1nnc2c(n1)OC(c1ccc(OC)cc1)Nc1ccccc1-2 (centres unmarked) [K, 6-(4-Methoxy-phenyl)-3-propylsulfanyl-6,7-dihydro-5-oxa-1,2,4,7-tetraaza-dibenzo[a,c]cycloheptene]	*
CCCSc1nnc2c(n1)OC(c1ccc(-c3cccc([N+](=O)[O-])c3)o1)Nc1ccccc1-2 (centres unmarked) [L, 6-[5-(3-Nitro-phenyl)-furan-2-yl]-3-propylsulfanyl-6,7-dihydro-5-oxa-1,2,4,7-tetraaza-dibenzo[a,c]cycloheptane]	**
O=c1/c(=C\c2c[nH]nc2-c2ccccc2)sc2nc3ccccc3n12 [M, 2-(3-Phenyl-1H-pyrazol-4-ylmethylene)-benzo[4,5]imidazo[2,1-b]thiazol-3-one]	**
CCOC(=O)C1=C(C)N=c2sc(=Cc3ccc(-c4cccc(C(=O)O)c4)o3)c(=O)n2C1c1c(OC)ccc2ccccc12 (centres unmarked) [N, 2-[5-(3-Carboxy-phenyl)-furan-2-ylmethylene]-5-(2-methoxy-naphthalen-1-yl)-7-methyl-3-oxo-2,3-dihydro-5H-thiazolo[3,2-a]pyrimidine-6-carboxylicacid ethyl ester]	**
CCOC(=O)C1=C(C)N=c2sc(=Cc3ccc(-c4ccc([N+](=O)[O-])cc4C)o3)c(=O)n2C1c1ccc2c(c1)OCO2 (centres unmarked) [P, 5-Benzo[1,3]dioxol-5-yl-7-methyl-2-[5-(2-methyl-4-nitro-phenyl)-furan-2-ylmethylene]-3-oxo-2,3-dihydro-5H-thiazolo[3,2-a]pyrimidine-6-carboxylicacid ethyl ester]	*
CCOC(=O)C1=C(C)N=c2s/c(=C/c3ccc(-c4cccc(C(F)(F)F)c4)o3)c(=O)n2C1c1ccccc1 (centres unmarked) [U, 7-Methyl-3-oxo-5-phenyl-2-[5-(3-trifluoromethyl-phenyl)-furan-2-ylmethylene]-2,3-dihydro-5H-thiazolo[3,2-a]pyrimidine-6-carboxylicacid ethyl ester]	**
CCOC(=O)C1=C(C)N=c2sc(=Cc3ccc(-c4cccc(C(=O)O)c4)o3)c(=O)n2C1c1ccc(N(C)C)cc1 (centres unmarked) [W, 2-[5-(3-Carboxy-phenyl)-furan-2-ylmethylene]-5-(4-dimethylamino-phenyl)-7-methyl-3-oxo-2,3-dihydro-5H-thiazolo[3,2-a]pyrimidine-6-carboxylicacid ethyl ester]	**
